By IC50 is commonly meant the concentration that gives 50% inhibition. Low values mean greater potency, high ones weaker potency.

In patent US8258130B2 (Sanofi, priority 2007, dated 2012) one finds IC50 data, which are given here for 28 compounds.

For this assay, the target named is human h-PGDS (Homo sapiens, UniProt O60760). Nature of the assay: Enzyme Immunoassay (EIA) method, inhibition of hematopoietic PGD2 synthase. The class given is biochemical. The following applies: EIA assay, PGD2 formed from PGH2 by human h-PGDS. The protocol:
Assay 2: Enzyme Immunoassay (EIA) Method
• a. Preparation of 0.1M K2HPO4/KH2PO4 buffer (pH 7.4) • Prepare 0.1 M KH2PO4 from 1M KH2PO4 (Sigma, Cat# P-8709) • Prepare 0.1 M K2HPO4 from powder of K2HPO4 (Fisher, BP363-500) • Mix 0.1 M K2HPO4 with 0.1 M KH2PO4 to adjust pH to 7.4. • b. Preparation of 0.5% γ-globulin • Add 0.1 g of γ-globulin (Sigma, Cat# G-5009) to 20 mL 0.1 M K2HPO4/KH2PO4 buffer (pH 7.4) and make 1-mL/vial aliquots and store in −80° C. • c. Preparation of 100 mM GSH • Add 307 mg of GSH (Sigma, Cat# G-6529) to 10 mL 0.1 M K2HPO4/KH2PO4 buffer (pH 7.4) and store at −80° C. • d. Preparation of Reaction buffer: • 198 mL of 0.1M K2HPO4/KH2PO4 buffer (pH 7.4) • 2 mM GSH—Prepared from 100 mM GSH • 0.4 g Glycerol • 2 mL of 0.5% γ-globulin • Add 0.4 g of glycerol and 2 mL of 0.5% γ-globulin to 198 mL of 0.1 M K2HPO4/KH2PO4 • buffer (pH7.4). • Add 0.4 mL of 100 mM GSH to 19.6 mL reaction buffer before the assay (enough for two 96-well plates). • e. Preparation of FeCl2/citric acid stopping solution: (8 mg/mL FeCl2, 0.1 M citric acid) • Add 40 mg fresh FeCl2 (IGN, Cat# 158046) to 5 mL 0.1 M citric acid (Sigma, Cat# C0759). • f. Preparation of MOX reagent: • 10% EtOH—Add 1 mL of EtOH to 9 mL of ultra pure H2O • Dissolve 0.1 g of methoxyl amine (Cayman, Cat# 400036/) in 10% EtOH (10 mL). • Add 0.82 g of sodium acetate (Cayman, Cat#400037) to MOX solution and dissolve. II. Materials and Method • Dimethylsulfoxide (DMSO; Sigma; Cat# D2650) • Prostaglandin D2-MOX express EIA kit (Caymen Chemical, Catalog No. 500151)
Before the assay, cool down 10 mL of acetone in polypropylene tubes and empty 96 well plates in ice. All the procedures except compound dilution are performed on ice.
• 1. Dilute compound in DMSO
• 2. Dilute 2 μL of each above concentration of compound to 38 μL of reaction buffer in 96-well plates and mix. IV. Enzyme and Substrate Solution Preparation • 1 Preparation of 0.39 ng/μL enzyme solution (0.35 ng/μL at final after compound addition). • Mix 4 μL of 4 mg/mL human h-PGDS with 396 μL of reaction buffer (to give enzyme concentration 40 μg/mL). Add 46.8 μL of 40 μg/mL h-PGDS to 4.753 mL of reaction buffer to give a total volume of 4.8 mL • 2. Preparation of Substrate Solution (PGH2): Add 0.375 mL of 0.1 mg/mL of PGH2 to 1.625 mL acetone. V. Enzyme Reaction: • 1. Add 60 μL of enzyme solution to compound well and positive control (without compound) in U-bottom polypropylene plate on ice. • 2. Add 60 μL of reaction buffer and 6.6 μL of 5% DMSO in reaction buffer into negative control wells in the plate. • 3. Add 6.6 μL of diluted compound in reaction buffer to the compound wells and mix. • 4. Add 6.6 μL of 5% DMSO in reaction buffer to the positive control well. • 5. Incubate the plate in ice for at least 30 min. • 6. Add 20 μL of substrate (PGH2) solution to compound, negative and positive control wells in the U-bottom 96 well plate on ice. • 7. Dry the plate in cold room for about 25-28 min. • 8. Pipette 45 μL of enzyme solution (above) into 96-wells with dried PGH2 and mix 3 times. Incubate on the ice for 1 min. • 9. Add 45 μL of FeCl2 solution into each wells and mix. • 10. Add 90 μL of MOX solution and mix. • 11. Incubate for 30 min at 60° C. • 12. Dilute the samples 2500× with EIA buffer. VI. EIA Assay • Perform the assay according to the procedure in EIA kit provided by Cayman. Total PGD2 levels (pg/mL) were determined in the samples by EIA kits (Caymen Chemical, Catalog No. 500151) Calculate Amount of PGD2 as Below • Calculated % Positive control according to the equation below; % Positive control=(Compound value−Negative control)/(Positive value−Negative control value)×100. […]

The structures appear in SMILES notation.

Chain of human h-PGDS (O60760 whole entry): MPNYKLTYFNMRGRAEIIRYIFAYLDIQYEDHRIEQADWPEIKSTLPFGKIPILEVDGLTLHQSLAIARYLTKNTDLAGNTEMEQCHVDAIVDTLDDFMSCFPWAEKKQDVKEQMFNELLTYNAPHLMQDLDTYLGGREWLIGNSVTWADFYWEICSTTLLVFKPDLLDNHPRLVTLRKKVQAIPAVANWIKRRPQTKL

With `Cc1nc(-c2ccccn2)ncc1C(=O)Nn1cc(C)c2cc(F)ccc21` [Example 3, 4-Methyl-2-pyridin-2-yl-pyrimidine-5-carboxylic acid (5-fluoro-3-methyl-indol-1-yl)amide], the IC50 worked out at 7 nM. Then `Cc1cn(NC(=O)c2cnc(-c3cccnc3)nc2)c2ccc(F)cc12` [Example 6, 2-Pyridin-3-yl-pyrimidine-5-carboxylic acid (5-fluoro-3-methyl-indol-1-yl)-amide], with 10 nM; and `Cc1nc(-c2cccc(F)c2)ncc1C(=O)Nn1cc(C)c2cc(F)ccc21` [Example 10, 2-(3-Fluoro-phenyl)-4-methyl-pyrimidine-5-carboxylic acid (5-fluoro-3-methyl-indol-1-yl)-amide], with 6 nM.

For the compound `Cc1nc(-c2ccccn2)ncc1C(=O)Nn1c(C)cc2cc(F)ccc21` [Example 12, 4-Methyl-2-pyridin-2-yl-pyrimidine-5-carboxylic acid (5-fluoro-2-methyl-indol-1-yl)-amide], half-maximal inhibition (IC50) was put at 8 nM. Next, `O=C(NN1CCN(C(=O)OCc2ccccc2)CC1=O)c1cnc(-c2ccccc2)nc1` [Example 20, 3-Oxo-4-[(2-phenyl-pyrimidine-5-carbonyl)-amino]-piperazine-1-carboxylic acid benzyl ester]: 104 nM; `O=C(Nn1ccc2c(F)cccc21)c1cnc(-c2cccc(F)c2)nc1` [Example 31, 2-(3-Fluorophenyl)pyrimidine-5-carboxylic acid-(4-fluoroindol-1-yl)amide]: 11 nM. `Cc1nc(-c2cccc(F)c2)ncc1C(=O)Nn1cc(-c2nnn[nH]2)c2cc(F)ccc21` [Example 42, 2-(3-Fluoro-phenyl)-4-methyl-pyrimidine-5-carboxylic acid [5-fluoro-3-(1H-tetrazol-5-yl)-indol-1-yl]-amide] came in with a 50% inhibitory concentration (IC50) of 5 nM.

As for `O=C(Nn1cnnc1)c1cnc(-c2ccccc2)nc1` [Example 43, 2-Phenyl-pyrimidine-5-carboxylic acid [1,2,4]triazol-4-ylamide], the IC50 was 263 nM. Then `O=C(NNc1ccccc1F)c1cnc(-c2ccccc2)nc1` [Example 45, 2-Phenyl-pyrimidine-5-carboxylic acid N′-(2-fluoro-phenyl)-hydrazide], with 12 nM; and `O=C(NN1CCOCC1=O)c1cnc(-c2ccccc2)nc1` [Example 47, 2-Phenyl-pyrimidine-5-carboxylic acid (3-oxo-morpholin-4-yl)-amide], with 55 nM; and `Cc1nc(-c2ncc(C(=O)NN3CCN(CCO)CC3)cn2)no1` [Example 48, 2-(5-Methyl-[1,2,4]oxadiazol-3-yl)-pyrimidine-5-carboxylic acid [4-(2-hydroxy-ethyl)-piperazin-1-yl]-amide], with 461 nM. In turn, `O=C(NN1CCOCC1)c1cnc(C(=O)c2ccccc2)nc1` [Example 50, 2-Benzoyl-pyrimidine-5-carboxylic acid morpholin-4-ylamide] returned an IC50 of 342 nM. Next, `O=C(NN1CCN(CCO)CC1)c1cnc(C(=O)c2ccccc2)nc1` [Example 51, 2-Benzoyl-pyrimidine-5-carboxylic acid [4-(2-hydroxy-ethyl)-piperazin-1-yl]-amide]: 665 nM.

For `O=C(NN1CCCCC1=O)c1cnc(-c2ccccc2)nc1` [Example 56, 2-Phenyl-pyrimidine-5-carboxylic acid N′-(2-oxo-piperidin-1-yl)-amide], the IC50 stood at 55 nM.

`CN(NC(=O)c1cnc(-c2ccccc2)nc1)C1CCCCC1` [Example 57, 2-Phenyl-pyrimidine-5-carboxylic acid N′-cyclohexyl-N′-methyl-hydrazide] gave an IC50 of 147 nM. With `O=C(NN1CCOCC1)c1cnc(Oc2ccccc2)nc1` [Example 58, 2-Phenyoxy-pyrimidine-5-carboxylic acid N′-morpholin-4-yl-amide], the midpoint of inhibition, the IC50, lay at 227 nM. Next, `COc1cccc(-c2ncc(C(=O)NN3CC(C)=NNC3=O)cn2)c1` [Example 59, 2-(3-Methoxy-phenyl)-pyrimidine-5-carboxylic acid (6-methyl-3-oxo-2,5-dihydro-3H-[1,2,4]triazin-4-yl)-amide]: 175 nM; `O=C(Nn1cc(Br)c(=O)[nH]c1=O)c1cnc(-c2ccccc2)nc1` [Example 72, 2-Phenyl-pyrimidine-5-carboxylic acid (5-bromo-2,4-dioxo-3,4-dihydro-2H-pyrimidin-1-yl)-amide]: 108 nM. The compound `O=C(NN1CC(CN2CCOCC2)OC1=O)c1cnc(-c2ccccc2)nc1` (stereo not shown) [Example 75, 2-Phenyl-pyrimidine-5-carboxylic acid (5-morpholin-4-ylmethyl-2-oxo-oxazolidin-3-yl)-amide] gave an IC50 of 20 nM. Next, `O=C(NN1CCOC1=O)c1cnc(-c2ccccc2)nc1` [Example 77, 2-Phenyl-pyrimidine-5-carboxylic acid (2-oxo-oxazolidin-3-yl)-amide]: 49 nM; `O=C(NN1CCc2ccccc21)c1cnc(-c2ccccc2)nc1` [Example 82, 2-Phenyl-pyrimidine-5-carboxylic acid (2,3-dihydro-indol-1-yl)-amide]: 2 nM; `O=C(NN1CCN(C2CCOC2=O)CC1)c1cnc(-c2ccccc2)nc1` (stereo not shown) [Example 87, 2-Phenyl-pyrimidine-5-carboxylic acid [4-(2-oxo-tetrahydro-furan-3-yl)-piperazin-1-yl]-amide]: 26 nM. Then `O=C(NN1CCN(C(=O)C(F)(F)F)CC1)c1cnc(-c2ccccc2)nc1` [Example 88, 2-Phenyl-pyrimidine-5-carboxylic acid [4-(2,2,2-trifluoro-acetyl)-piperazin-1-yl]-amide], with 57 nM; and `O=C(NN1CCN(CC(=O)N2CCOCC2)CC1)c1cnc(-c2ccccc2)nc1` [Example 90, 2-Phenyl-pyrimidine-5-carboxylic acid [4-(2-morpholin-4-yl-2-oxo-ethyl)-piperazin-1-yl]-amide], with 832 nM. As to `O=C(NN1CCc2ccccc21)c1cnc(-c2cccc(F)c2)nc1` [Example 91, 2-(3-Fluoro-phenyl)-pyrimidine-5-carboxylic acid (2,3-dihydro-indol-1-yl)-amide], the half-inhibitory concentration (IC50) is 3 nM. Then `O=C(NN1CCCCC1)c1cnc(-c2cccc(F)c2)nc1` [Example 92, 2-(3-Fluoro-phenyl)-pyrimidine-5-carboxylic acid piperadin-1-yl-amide], with 19.5 nM; and `Cc1nc(-c2ccccc2)ncc1C(=O)NN1CCc2ccccc21` [Example 95, 4-Methyl-2-phenyl-pyrimidine-5-carboxylic acid (2,3-dihydro-indol-1-yl)-amide], with 5.5 nM; and `CC1Cc2ccccc2N1NC(=O)c1cnc(-c2ccccc2)nc1` (stereo not shown) [Example 99, 2-Phenyl-pyrimidine-5-carboxylic acid (2-methyl-2,3-dihydro-indol-1-yl)-amide], with 4 nM.
